Data reported in US20260070895A1, “CRYSTALLINE FORMS” (QUIMATRYX, S.L., priority 2022, published 2026).
Values after ≈ are worked out from the molar mass of the structure shown. “Also recorded” adds a separate entry of the source. Like-named read-outs stand apart in the source and are kept apart here.

How the values were obtained:
Assay type in all cases: physicochemical
[1] = Photostability in solution (THF and water), HPLC; conditions: in solution (THF and water), sealed under nitrogen in amber glass bottles; for degradation (in words): up to 171 hours
Description: (§1) The method for determining purity by HPLC—used throughout these examples—used the following parameters:
(§2) The photostability of novel crystalline forms of QTX125 was assessed at solid state and in solution. Where ‘forced illumination’ conditions were used, samples were illuminated at 12 Klux/hour and 2.8 UV W/m^2/hour. Samples were stored at a temperature of 30° C. Following incubation, the chemical purity of QTX125 was measured by HPLC.
(§3) The following index is provided to aid navigation of the data presented in Tables 3.1.1 to 3.3.6: • 3.1.x—Assessment of the photostability of QTX125 Form 2. • 3.2.x—Assessment of the photostability of amorphous QTX125. • 3.3.x—Assessment of the photostability of the QTX125 1:2 L-Lysine adduct. • 3.x.1—Samples (at solid state) stored in unsealed clear glass bottles, subject to forced illumination. • 3.x.2—Samples (at solid state) sealed under nitrogen in clear glass bottles, subject to forced illumination. • 3.x.3—Samples (at solid state) sealed under nitrogen in amber glass bottles, illuminated under ambient laboratory conditions • 3.x.4—Samples (at solid state) sealed under nitrogen in amber glass bottles, subject to forced illumination. • 3.x.5—Samples (in solution) sealed under nitrogen in amber glass bottles, illuminated under ambient laboratory conditions. • 3.x.6—Samples (in solution) sealed under nitrogen in amber glass bottles, subject to forced illumination.

[2] = Aqueous solubility at 37° C. (HPLC of filtered suspension); conditions: 37° C.
Description: The solubility of novel crystalline forms of QTX125 was assessed in the following aqueous solutions: (i) phosphate buffer, pH 3.5, 0.9% w/v sodium chloride; (ii) phosphate buffer, pH 6.5, 0.9% w/v sodium chloride; (iii) acetate buffer, pH 4.5, 0.9% w/v sodium chloride; (iv) citro-phosphate buffer, pH 4.5, 0.9% w/v sodium chloride; (v) sodium chloride, 0.9% w/v and (vi) deionised water. All assays were completed at 37° C.
In brief, 30 mg QTX125 was dispensed into vessels followed by 5 mL of the appropriate aqueous buffer. Mixtures were suspended by agitation and heated to 37° C. At various fixed intervals, an 0.4 mL aliquot of the suspension was removed, filtered and diluted for examination by HPLC. A single HPLC reference sample was used.

[3] = Photostability at solid state (chemical purity by HPLC after illumination)
Description: as §1, §2, §3

[4] = ambient laboratory conditions, 0 hours
[5] = ambient laboratory conditions, 3 hours
[6] = ambient laboratory conditions, 26 hours
[7] = ambient laboratory conditions, 171 hours
[8] = ambient laboratory conditions, 171 hours, listed as Form 2
[9] = forced illumination, 171 hours, listed as Form 2
[10] = 0.9% w/v sodium chloride solution, saline or isotonic, thermodynamic from solid, buffer (v) sodium chloride, 0.9% w/v, read-out: concentration of QTX125 (solubility)
[11] = acetate buffer with 0.9% w/v sodium chloride, aqueous buffer, thermodynamic from solid, buffer (iii) acetate buffer, pH 4.5, 0.9% w/v sodium chloride, read-out: concentration of QTX125 (solubility)
[12] = citro-phosphate buffer with 0.9% w/v sodium chloride, aqueous buffer, thermodynamic from solid, buffer (iv) citro-phosphate buffer, pH 4.5, 0.9% w/v sodium chloride, read-out: concentration of QTX125 (solubility)
[13] = phosphate buffer with 0.9% w/v sodium chloride, aqueous buffer, thermodynamic from solid, buffer (i) phosphate buffer, pH 3.5, 0.9% w/v sodium chloride, read-out: concentration of QTX125 (solubility)
[14] = phosphate buffer with 0.9% w/v sodium chloride, aqueous buffer, thermodynamic from solid, buffer (ii) phosphate buffer, pH 6.5, 0.9% w/v sodium chloride, read-out: concentration of QTX125 (solubility)
[15] = thermodynamic from solid, buffer (vi) deionised water, read-out: concentration of QTX125 (solubility)
[16] = solid-state, sealed under nitrogen in amber glass bottles, ambient laboratory conditions, 0 hours

With `O=C(NO)c1ccc(CNC(=O)c2[nH]c(-c3ccc(O)cc3)cc2-c2ccoc2)cc1` [QTX125 Form 2, 3-(3-Furyl)-N-{4-[(hydroxyamino)carbonyl]benzyl}-5-(4-hydroxyphenyl)-1H-pyrrole-2-carboxamide] the “HPLC peak area, QTX125 RRT 1.00” value [1, 4] was 98.21%, the “HPLC peak area, RRT 1.04” value [1, 4] was 0.98% and the “HPLC peak area, QTX125 RRT 1.00” value [1, 5] was 97.50%. The “HPLC peak area, RRT 1.04” value [1, 5] was 1.06%, the “HPLC peak area, QTX125 RRT 1.00” value [1, 6] was 97.65% and the “HPLC peak area, RRT 1.04” value [1, 6] was 0.93%. The “HPLC peak area, QTX125 RRT 1.00” value [1, 7] was 91.10%, the “HPLC peak area, RRT 1.04” value [1, 7] was 4.81% and the “HPLC peak area, RRT 1.12” value [1, 7] was 0.83%. For the same compound, the “HPLC peak area, QTX125 RRT 1.00” value [1, 8] was 91.10%, the “HPLC peak area, RRT 1.04” value [1, 8] was 4.81% and the “HPLC peak area, RRT 1.12” value [1, 8] was 0.83%. The “degradation (in words)” value ([1]; ambient laboratory conditions) was “degrade”, the “HPLC peak area, QTX125 RRT 1.00” value ([1]; forced illumination, 0 hours) was 98.21% and the “HPLC peak area, RRT 1.04” value ([1]; forced illumination, 0 hours) was 0.98%. For the same compound, the “HPLC peak area, QTX125 RRT 1.00” value ([1]; forced illumination, 3 hours) was 97.30%, the “HPLC peak area, RRT 1.04” value ([1]; forced illumination, 3 hours) was 1.07% and the “HPLC peak area, QTX125 RRT 1.00” value ([1]; forced illumination, 26 hours) was 96.27%. The “HPLC peak area, RRT 1.04” value ([1]; forced illumination, 26 hours) was 1.09%, the “HPLC peak area, QTX125 RRT 1.00” value ([1]; forced illumination, 171 hours) was 81.65% and the “HPLC peak area, RRT 1.04” value ([1]; forced illumination, 171 hours) was 3.60%. The “HPLC peak area, RRT 1.12” value ([1]; forced illumination, 171 hours) was 0.86%, the “HPLC peak area, QTX125 RRT 1.00” value [1, 9] was 81.65% and the “HPLC peak area, RRT 1.04” value [1, 9] was 3.60%. The “HPLC peak area, RRT 1.12” value [1, 9] was 0.86%, the “degradation (in words)” value ([1]; forced illumination) was “degrade” and the solubility at 1 h [2, 10] was 0.68 µg/mL (≈ 1.63 µM). The solubility at 4 h [2, 10] was 0.26 µg/mL (≈ 0.623 µM), the solubility at 7 h ([2]; 0.9% w/v sodium chloride solution, saline or isotonic, thermodynamic from solid, buffer (v) sodium chloride, 0.9% w/v, 7 hours, read-out: concentration of QTX125 (solubility)) was 0.22 µg/mL (≈ 0.527 µM) and the solubility at 24 h [2, 10] was 0.81 µg/mL (≈ 1.94 µM). The solubility at 1 h [2, 11] was 0.25 µg/mL (≈ 0.599 µM), the solubility at 4 h [2, 11] was 0.29 µg/mL (≈ 0.695 µM) and the solubility at 7 h ([2]; acetate buffer with 0.9% w/v sodium chloride, aqueous buffer, thermodynamic from solid, buffer (iii) acetate buffer, pH 4.5, 0.9% w/v sodium chloride, 7 hours, read-out: concentration of QTX125 (solubility)) was 0.19 µg/mL (≈ 0.455 µM). For the same compound, the solubility at 24 h [2, 11] was 0.5 µg/mL (≈ 1.2 µM), the solubility ([2]; aqueous buffers (i) to (v), aqueous buffer, thermodynamic from solid, buffers (i) to (v), 1 to 24 hours, read-out: concentration values range (solubility)) was 0.15 to 1.76 µg/mL (≈ 0.359 to 4.22 µM) and the “concentration of QTX125 (solubility)” value ([2]; buffer (vi) deionised water, 7 hours) was 27.82 µg/mL. For the same compound, the “solubility (in words)” value ([2]; buffers (i) to (v)) was “very low”, the solubility at 1 h [2, 12] was 0.32 µg/mL (≈ 0.767 µM) and the solubility at 4 h [2, 12] was 0.17 µg/mL (≈ 0.407 µM). For the same compound, the solubility at 7 h ([2]; citro-phosphate buffer with 0.9% w/v sodium chloride, aqueous buffer, thermodynamic from solid, buffer (iv) citro-phosphate buffer, pH 4.5, 0.9% w/v sodium chloride, 7 hours, read-out: concentration of QTX125 (solubility)) was 0.17 µg/mL (≈ 0.407 µM), the solubility at 24 h [2, 12] was 0.4 µg/mL (≈ 0.958 µM) and the “PXRD analysis of the solid recovered at 24 hours” value ([2]; deionised water (vi)) was “confirmed the entity as Form 2”. For the same compound, the solubility at 1 h [2, 13] was 0.77 µg/mL (≈ 1.84 µM), the solubility at 4 h [2, 13] was 0.15 µg/mL (≈ 0.359 µM) and the solubility at 7 h ([2]; phosphate buffer with 0.9% w/v sodium chloride, aqueous buffer, thermodynamic from solid, buffer (i) phosphate buffer, pH 3.5, 0.9% w/v sodium chloride, 7 hours, read-out: concentration of QTX125 (solubility)) was 0.5 µg/mL (≈ 1.2 µM). For the same compound, the solubility at 24 h [2, 13] was 1.76 µg/mL (≈ 4.22 µM), the solubility at 1 h [2, 14] was 0.33 µg/mL (≈ 0.791 µM) and the solubility at 4 h [2, 14] was 0.15 µg/mL (≈ 0.359 µM). The solubility at 7 h ([2]; phosphate buffer with 0.9% w/v sodium chloride, aqueous buffer, thermodynamic from solid, buffer (ii) phosphate buffer, pH 6.5, 0.9% w/v sodium chloride, 7 hours, read-out: concentration of QTX125 (solubility)) was 0.34 µg/mL (≈ 0.815 µM), the solubility at 24 h [2, 14] was 0.63 µg/mL (≈ 1.51 µM) and the solubility at 1 h [2, 15] was 17.8 µg/mL (≈ 42.6 µM). For the same compound, the solubility at 4 h [2, 15] was 22.4 µg/mL (≈ 53.6 µM), the solubility at 24 h [2, 15] was 16.6 µg/mL (≈ 39.7 µM) and the solubility at 7 h ([2]; thermodynamic from solid, deionised water (buffer vi), following 7 hours of incubation, read-out: peak solubility) was 27.8 µg/mL (≈ 66.6 µM). The “photostability as compared to amorphous QTX125” value ([3]; at solid state) was “enhanced photostability; also recorded: improved photostability”, the “HPLC peak area, QTX125 RRT 1.00” value [3, 16] was 98.21% and the “HPLC peak area, RRT 1.04” value [3, 16] was 0.98%.
